Values of other authors in PMC5760531, “Action Potential Recording and Pro-arrhythmia Risk Analysis in Human Ventricular Trabeculae” (Frontiers in Physiology, 2018).

Experiments:
Nav1.5 = system: Nav1.5; set-up: method as in Qu and Vargas, 2015; conditions: previous experiments; ref Qu and Vargas, 2015; cited from earlier work
[1] = cited from earlier work

## Nc1nnc(-c2cccc(Cl)c2Cl)c(N)n1 [LAMOTRIGINE, Lamotrigine]
Nav1.5
  IC50: 40 µM
[1]; human free (unbound) effective therapeutic plasma concentration used to calculate multiples
  Free ETPC: 17 µM
[1]; human, ref Dixon et al., 2008
  free therapeutic exposure: approximately 17 μM
